Assay results from patent publication US20190345536A1, “DETECTION METHOD FOR CHROMOSOMAL ABNORMALITIES AND METHOD FOR EVALUATING INDUCIBILITY” (Sumitomo Chemical Company, Limited, priority 2016, published 2019).
Read-outs that look alike come from different tables or passages of the source.

Assays:
[1] = tested on: human iPS cell-derived T lymphocyte
[2] = tested on: human iPS cell-derived T lymphocyte; assay: In vitro comet assay using human iPS cell-derived T lymphocyte (Example 6); assay type: cell-based
Procedure: As human iPS cell-derived T lymphocyte, redifferentiated T lymphocyte derived from human iPS cell line “2” described in Example 1(1) was used. […] A test substance was used at the treatment dose (final concentration in medium) described in Table 9. For the treatment, a test substance was dissolved in PBS at a 100-fold concentration of the final concentration in the medium for addition at 1% (v/v). A test substance was treated according to the process described in (4). […] Each well was washed twice with 1 mL of PBS, redifferentiated T lymphocytes derived from human iPS cell line described in (1) were suspended in Rh-medium at a cell density of 2.0×10^6 cells/mL and added to each well. After about 13 hr of culture, the total amount of the cell suspension was recovered by pipetting. The cell suspension was diluted with Rh-5 medium to a cell density of 2.0×10^5 cells/mL and reseeded in a 24 well plate not coated with the antibody at 1 mL per well, and culture was continued. Treatments with EMS and MAN were performed according to the method described below. That is, after about 24 hr from the reseeding in (3), a solution (10 μL) obtained by dissolving a test substance in PBS at a 100-fold concentration of the final concentration described in Table 9 was further added and the cells were treated for 4 hr. […] On completion of the additional culture, a part of the cell suspension was separated and the number of the cells was measured using a counting chamber. […] The prepared specimen was stained for nucleic acid using SYBR (registered trade mark) Gold, and observed under a fluorescence microscope at 200-fold magnification. 75 nuclei per specimen and 150 nuclei in two specimens per condition were imaged, % tail DNA was calculated using an image analyzer Comet Assay IV, and DNA damaging activity was determined. The % tail DNA was calculated as a percentage of the fluorescence brightness of the tail to the fluorescence brightness of the whole cell nucleus. […]

[3] = tested on: human iPS cell-derived T lymphocyte; assay: In vitro chromosomal aberration test using human iPS cell-derived T lymphocyte (Example 5); assay type: cell-based
Procedure: As human iPS cell-derived T lymphocyte, redifferentiated T lymphocyte derived from human iPS cell line “2” described in Example 1(1) was used. […] A test substance was used at the treatment dose (final concentration in medium) described in Table 7. For the treatment, a test substance was dissolved in PBS at a 100-fold concentration of the final concentration in the medium for addition at 1% (v/v). Treatment with a test substance was performed according to the process described in (4). […] After about 14 hr of culture, the total amount of the cell suspension was recovered by pipetting. The cell suspension was diluted with Rh-5 medium to a cell density of 2.0×10^5 cells/mL and reseeded in a 12 well plate not coated with the antibody at 2 mL per well, and culture was continued. Treatments with MMC, EMS and MAN were performed according to the method described below. That is, after about 24 hr from the reseeding in (3), a solution (20 μL) obtained by dissolving a test substance in PBS at a 100-fold concentration of the final concentration described in Table 5 was further added and the cells were treated for 27 hr. Different from a test substance treatment group, PBS (20 μL) was added and a similar treatment was performed for 27 hr to prepare a negative control group. About 2 hr before completion of the treatment, KaryoMAX (registered trade mark) Colcemid™ Solution in HBSS (Life technologies) (20 μL) was added to the well (final concentration in medium: 0.1 μg/mL) to discontinue the cell cycle, and cells in mitotic metaphase were enriched. At the time of start of the test substance treatment, a part of the cell suspension of the negative control group was separated and the number of the cells was measured using a counting chamber. […] All remaining cell suspension was collected in a centrifuge tube and PBS was added to a total volume of 5 mL, after which the mixture was centrifuged (1000 rpm, 5 min). The supernatant was removed, 75 mM KCl heated to 37° C. was added and a hypotonic treatment was performed for 5 min. To the cell suspension after the hypotonicity was added 1/5 volume of a fixation solution (methanol:glacial acetic acid=3:1), and the cells were semi-fixed and centrifuged (4° C., 1000 rpm, 3 min). After centrifugation, the supernatant was substituted with a fresh fixation solution, and the cells were fixed and centrifuged (4° C., 1000 rpm, 3 min). The operation was repeated 3 times, and the cells were sufficiently fixed and centrifuged again (4° C., 1000 rpm, 3 min). The cells were suspended in a small amount of a fixation solution. […] Chromosomal abnormalities were classified into chromatid break, chromosome break, chromatid exchange, chromosome exchange, and other structural abnormalities and counted. […]

[4] = tested on: human iPS cell-derived T lymphocyte; assay: Proliferation ability of human iPS cell-derived T lymphocyte by various proliferation stimulation factors (ATP amount, CellTiter-Glo; Comparative Example 1); assay type: cell-based
[5] = from known documents (Kirkland 2016; Lasne 1984; Aardema 2006); cited from earlier work
[6] = from known documents (Kirkland 2016; Lasne 1984); cited from earlier work
[7] = from known documents (Kirkland 2016; Lasne 1984); cited from earlier work; remark: listed apart in the source
[8] = tested on: human iPS cell-derived T lymphocyte; assay: Division kinetics of human iPS cell-derived T lymphocyte stimulated with PHA (CytoB, CBPI; Comparative Example 2); assay type: cell-based; conditions: CytoB 24 hr
[9] = tested on: human peripheral blood-derived mononuclear cells PBMC (feeder cell, 35Gy X-ray); assay: Division kinetics of feeder cells alone under PHA stimulation (comparison control, Comparative Example 2); assay type: cell-based; conditions: feeder cell only, 5 μg/mL PHA, CytoB 24 hr
[10] = iPS cell line 2, 27 hr treatment, doses of Table 7, 300 metaphase cells, Fisher's exact test
[11] = proliferation stimulation for 66 hr
[12] = absence of feeder cells, 3 μg/mL PHA, 426 cells observed
[13] = coculture with feeder cells, 5 μg/mL PHA, 500 cells observed

O=P1(N(CCCl)CCCl)NCCCO1 (centres unmarked) [CPA, cyclophosphamide monohydrate]
judgment result obtained in this Example (in vitro micronucleus test) [1]: positive

CCOS(C)(=O)=O [EMS, ethyl methanesulfonate]
judgment result obtained in this Example (in vitro micronucleus test) [1]: positive | judgment result obtained in this Example (in vitro comet assay) [2]: positive | judgment result obtained in this Example (in vitro chromosomal aberration test) [3]: positive

C[C@H](CCC(=O)O)C[C@H](C)C[C@H](C)C(=O)/C=C(\O)[C@H](C)C[C@H](C)C/C=C/[C@@H](C)[C@@H](O)[C@@H](C)[C@@H](O)C[C@@H]1CC[C@@](C)([C@H]2CC[C@@](C)([C@@H](C)O)O2)O1 [Ionomycin]
proliferation of human iPS cell-derived T lymphocyte by proliferation stimulation [4]: does not proliferate

OC[C@@H](O)[C@@H](O)[C@H](O)[C@H](O)CO [MAN, D(−)-mannitol]
increase in frequency of micronucleus [1]: no statistically significant increase | judgment result obtained in this Example (in vitro micronucleus test) [1]: negative | judgment result expected from known information (in vitro micronucleus test) [5]: negative | increase in % tail DNA ([2]; all doses (FIG. 14)): no statistically significant increase | judgment result obtained in this Example (in vitro comet assay) ([2]; iPS cell line 2, 4 hr treatment, doses of Table 9, % tail DNA, Dunnett's test): negative | judgment result expected from known information (in vitro chromosomal aberration test) [6]: negative | judgment result expected from known information (in vitro comet assay) [7]: negative | increase in frequency of chromosomal aberration ([3]; all doses (FIG. 12)): no statistically significant increase | judgment result obtained in this Example (in vitro chromosomal aberration test) [3, 10]: negative

CO[C@@]12[C@H](COC(N)=O)C3=C(C(=O)C(C)=C(N)C3=O)N1C[C@@H]1N[C@@H]12 [MMC, mitomycin C]
judgment result obtained in this Example (in vitro micronucleus test) [1]: positive | judgment result expected from known information (in vitro chromosomal aberration test) [6]: positive | judgment result obtained in this Example (in vitro chromosomal aberration test) [3, 10]: positive

CCCCCCCCCCCCCC(=O)O[C@@H]1[C@@H](C)[C@@]2(O)[C@@H](C=C(CO)C[C@]3(O)C(=O)C(C)=C[C@@H]23)[C@@H]2C(C)(C)[C@]12OC(C)=O [PMA, phorbol 12-myristate 13-acetate]
luminescent signal (count) [4]: 5784 count | proliferation of human iPS cell-derived T lymphocyte by proliferation stimulation [4]: does not proliferate | proliferation rate [4]: 4.5%

Concanavalin A [Con A]
luminescent signal (count) ([4]; 5 μg/mL Con A, 66 hr, background subtracted): 10064 count | proliferation rate ([4]; 5 μg/mL Con A, 66 hr, percentage of signal at seeding): 7.8% | proliferation of human iPS cell-derived T lymphocyte by proliferation stimulation [4, 11]: does not proliferate

bleomycin sulfate [BLM]
judgment result obtained in this Example (in vitro micronucleus test) [1]: positive

phytohemagglutinin [PHA]
CBPI ([8]; absence of feeder cells, 3 μg/mL PHA): 1.39 | binucleated cell number [8, 12]: 160 | mononucleated cell number [8, 12]: 262 | multinucleated cell number [8, 12]: 4 | CBPI ([8]; coculture with feeder cells, 5 μg/mL PHA): 1.15 | binucleated cell number [8, 13]: 71 | mononucleated cell number [8, 13]: 426 | multinucleated cell number [8, 13]: 3 | luminescent signal (count) ([4]; 1 μg/mL PHA, 66 hr, background subtracted): 10984 count | proliferation rate ([4]; 1 μg/mL PHA, 66 hr, percentage of signal at seeding): 8.5% | luminescent signal (count) ([4]; 5 μg/mL PHA, 66 hr, background subtracted): 15024 count | proliferation rate ([4]; 5 μg/mL PHA, 66 hr, percentage of signal at seeding): 11.7% | proliferation of human iPS cell-derived T lymphocyte by proliferation stimulation [4, 11]: does not proliferate | CBPI [9]: 1.03 | binucleated cell number ([9]; 500 cells observed): 11 | mononucleated cell number ([9]; 500 cells observed): 488 | multinucleated cell number ([9]; 500 cells observed): 1
